# Measurements published in patent US8741905B2, “Compounds and methods for treating autoimmune diseases” (The Broad Institute, Inc., priority 2010, dated 2014).
# Columns and labels:
# INS-1E cells [1] = assay: Cellular ATP levels (CellTiter-Glo) in cytokine-treated INS-1E cells; suppression of cytokine-induced beta-cell apoptosis; format: cell-based, rat
# Description: The compounds were analyzed for activity utilizing methods described in Chou et al. (ACS Chem. Biol. 2010 Aug. 20; 5(8):729-34).
# INS-1E cells were seeded at 10,000 cells per well using a Multidrop Combi (Thermo Labsystems) in white optical 384-well plates (Corning Life Sciences). After overnight incubation, medium was removed and 50 μL of RPMI containing 1% FBS and a combination of cytokines (10 ng mL-^1 IL-1β, 50 ng mL^−1 IFN-γ, 25 ngmL^−1 TNF-α) was added to every well. Using libraries of compounds dissolved in DMSO and a CyBi-Well pin-transfer robot (CyBio Corp.), 0.1 μL of each compound was added. After 48 h, medium was removed and 20 μL of CellTiter-Glo reagent was added. Luminescence was measured after 10 min of incubation using an EnVision plate reader (PerkinElmer).
# Instrument output files were processed using Pipeline Pilot (Accelrys) and input to MATLAB (The MathWorks) for data normalization. Compound performance scores relative to a distribution of mock-treated (DMSO) wells were calculated using a revised version of the scoring system underlying ChemBank. (Seiler et al., Nucleic Acids Res. 36, D351-359, 2008). The role of replicate treatments was further developed as follows: first, mock-treatment distributions were modeled using all mock-treated wells measured on a single day, regardless of their nominal replicate; second, per-compound scores weighted each in-plate background-subtracted measurement by the uncertainty in that measurement, using the method of maximum likelihood. The uncertainty in a single background-subtracted measurement was estimated using the number of mock-treated wells on the plate and, as a measure of the assay noise, the standard deviation of the per-day mock-treatment distribution. The signal, a weighted average of differences, was scaled by the noise, the standard deviation of the mock treatment distribution.
# INS-1E cells were seeded at 10,000 cells/well using a Multidrop Combi (Thermo Labsystems) in white optical 384-well plates (Corning Life Sciences). After overnight incubation, medium was removed and 50 μL RPMI containing the treated compound, 1% FBS and a combination of cytokines (10 ng/mL IL-1β, 50 ng/mL IFN-γ, 25 ng/mL TNF-α) was added to every well. After incubation for 48 hr, medium was removed and 20 μL CellTiter-Glo reagent was added. Luminescence was measured after 10-min incubation using an EnVision plate reader (PerkinElmer).
# INS-1E cells [2] = assay: Caspase-3 activity assay (Caspase-Glo 3/7) in cytokine-treated INS-1E cells; format: cell-based, rat; details: cytokines, 48 h, Caspase-Glo 3/7
# Description: INS-1E cells were seeded at 5,000 cells per well in white optical 384-well plates and treated as described for highthroughput screening. After treatment with cytokines and compounds for 48 h, medium was removed and 20 μL Caspase-Glo 3/7 reagent was added. Luminescence was measured after 2 h of incubation using an EnVision plate reader.
# [3] = Rattus norvegicus, INS-1E, assay not named, read-out: EC50
# [4] = Rattus norvegicus, INS-1E cells, cytokines IL-1β, IFN-γ, TNF-α, 48 h, CellTiter-Glo, read-out: CTG EC50 in HTS
# [5] = INS-1E cells, cytokines IL-1β, IFN-γ, TNF-α, 48 h, CellTiter-Glo, read-out: CTG EC50 in HTS
EC50 (INS-1E cells [2]; Rattus norvegicus),EC50 (INS-1E cells [2]),SMILES,EC50 (INS-1E cells [1]; [3]),"IC50 (INS-1E cells [1]; Rattus norvegicus, INS-1E, read-out: IC50, inhibition of cytokine-induced beta cell apoptosis)",EC50 (INS-1E cells [1]; [4]),EC50 (INS-1E cells [1]; [5])
> 0.1 µM,–,"COc1ccc(S(=O)(=O)N(C)C[C@@H]2Oc3c(NC(=O)Nc4cccc5ccccc45)cccc3C(=O)N([C@@H](C)CO)C[C@H]2C)cc1 [Compound 1A, N-(((2R,3R)-5-((S)-1-hydroxypropan-2-yl)-3-methyl-10-(3-(naphthalen-1-yl)ureido)-6-oxo-3,4,5,6-tetrahydro-2H-benzo[b][1,5]oxazocin-2-yl)methyl)-4-methoxy-N-methylbenzenesulfonamide]",0.423 µM,4.9 µM,> 0.1 µM,–
> 25 µM,–,"Cc1ccc(S(=O)(=O)N(C)C[C@@H]2Oc3c(NC(=O)Nc4cccc5ccccc45)cccc3C(=O)N([C@@H](C)CO)C[C@H]2C)cc1 [Compound 2A, N-(((2R,3R)-5-((S)-1-hydroxypropan-2-yl)-3-methyl-10-(3-(naphthalen-1-yl)ureido)-6-oxo-3,4,5,6-tetrahydro-2H-benzo[b][1,5]oxazocin-2-yl)methyl)-N,4-dimethylbenzenesulfonamide]",5.5 µM,–,> 10 µM,–
> 10 µM,–,"Cc1ccc(S(=O)(=O)N(C)C[C@@H]2Oc3c(NC(=O)Nc4cccc5c4ccn5C)cccc3C(=O)N([C@@H](C)CO)C[C@H]2C)cc1 [Compound 3A, N-(((2R,3R)-5-((S)-1-hydroxypropan-2-yl)-3-methyl-10-(3-(1-methyl-1H-indol-4-yl)ureido)-6-oxo-3,4,5,6-tetrahydro-2H-benzo[b][1,5]oxazocin-2-yl)methyl)-N,4-dimethylbenzenesulfonamide]",–,–,> 25 µM,–
–,> 25 µM,C[C@@H]1CN([C@@H](C)CO)C(=O)c2cccc(NC(=O)Nc3cccc4ccccc34)c2O[C@H]1CN(C)S(=O)(=O)c1ccccc1 [Compound 4A],–,–,–,> 25 µM
–,> 25 µM,C[C@@H]1CN([C@@H](C)CO)C(=O)c2cccc(NC(=O)Nc3cccc4ccccc34)c2O[C@H]1CN(C)S(=O)(=O)c1ccc(Cl)cc1 [Compound 5A],–,–,–,> 0.1 µM
–,> 25 µM,C[C@@H]1CN([C@@H](C)CO)C(=O)c2cccc(NC(=O)Nc3cccc4ccccc34)c2O[C@H]1CN(C)S(=O)(=O)c1ccc(F)cc1 [Compound 6A],–,–,–,> 25 µM
–,> 25 µM,C[C@@H]1CN([C@@H](C)CO)C(=O)c2cccc(NC(=O)Nc3cccc4ccccc34)c2O[C@H]1CN(C)S(=O)(=O)c1cccc(F)c1 [Compound 7A],–,–,–,> 25 µM
–,> 25 µM,C[C@@H]1CN([C@@H](C)CO)C(=O)c2cccc(NC(=O)Nc3cccc4ccccc34)c2O[C@H]1CN(C)S(=O)(=O)c1ccccc1F [Compound 8A],–,–,–,> 25 µM
–,> 25 µM,C[C@@H]1CN([C@@H](C)CO)C(=O)c2cccc(NC(=O)Nc3cccc4ccccc34)c2O[C@H]1CN(C)CS(=O)(=O)c1ccc(F)cc1 [Compound 9A],–,–,–,> 25 µM
–,> 25 µM,COc1ccc(S(=O)(=O)N(C)C[C@@H]2Oc3c(NC(=O)Nc4cccc5ccccc45)cccc3C(=O)N([C@@H](C)CO)C[C@H]2C)cc1F [Compound 10A],–,–,–,> 20 µM
–,> 25 µM,COc1ccc(S(=O)(=O)N(C)C[C@@H]2Oc3c(NC(=O)Nc4cccc5ccccc45)cccc3C(=O)N([C@@H](C)CO)C[C@H]2C)cc1Cl [Compound 11A],–,–,–,> 10 µM
–,> 25 µM,C[C@@H]1CN([C@@H](C)CO)C(=O)c2cccc(NC(=O)Nc3cccc4ccccc34)c2O[C@H]1CN(C)S(=O)(=O)c1ccc(Oc2ccccc2)cc1 [Compound 12A],–,–,–,> 25 µM
–,> 25 µM,C[C@@H]1CN([C@@H](C)CO)C(=O)c2cccc(NC(=O)Nc3cccc4ccccc34)c2O[C@H]1CN(C)S(=O)(=O)c1ccc(-c2ccccc2)cc1 [Compound 13A],–,–,–,> 25 µM
–,> 25 µM,C[C@@H]1CN([C@@H](C)CO)C(=O)c2cccc(NC(=O)Nc3cccc4ccccc34)c2O[C@H]1CN(C)S(=O)(=O)c1ccc2c(c1)CCC(=O)N2 [Compound 14A],–,–,–,> 25 µM
–,> 25 µM,C[C@@H]1CN([C@@H](C)CO)C(=O)c2cccc(NC(=O)Nc3cccc4ccccc34)c2O[C@H]1CN(C)S(=O)(=O)c1ccc2c(c1)oc(=O)n2C [Compound 15A],–,–,–,> 25 µM
–,> 25 µM,C[C@@H]1CN([C@@H](C)CO)C(=O)c2cccc(NC(=O)Nc3cccc4ccccc34)c2O[C@H]1CN(C)S(=O)(=O)c1ccc(OC(F)(F)F)cc1 [Compound 16A],–,–,–,> 10 µM
–,> 25 µM,COc1ccccc1S(=O)(=O)N(C)C[C@@H]1Oc2c(NC(=O)Nc3cccc4ccccc34)cccc2C(=O)N([C@@H](C)CO)C[C@H]1C [Compound 17A],–,–,–,> 25 µM
–,> 25 µM,COc1cccc(S(=O)(=O)N(C)C[C@@H]2Oc3c(NC(=O)Nc4cccc5ccccc45)cccc3C(=O)N([C@@H](C)CO)C[C@H]2C)c1 [Compound 18A],–,–,–,> 25 µM
–,> 25 µM,COc1ccc(S(=O)(=O)N(C)C[C@@H]2Oc3c(NC(=O)Nc4cccc5ccccc45)cccc3C(=O)N([C@@H](C)CO)C[C@H]2C)c(OC)c1 [Compound 19A],–,–,–,> 25 µM
> 0.1 µM,–,"COc1ccc(S(=O)(=O)N(C)C[C@@H]2Oc3c(NC(=O)Nc4cccc5ccccc45)cccc3C(=O)N([C@@H](C)CO)C[C@H]2C)cc1C [Compound 20A, N-(((2R,3R)-5-((S)-1-hydroxypropan-2-yl)-3-methyl-10-(3-(naphthalen-1-yl)ureido)-6-oxo-3,4,5,6-tetrahydro-2H-benzo[b][1,5]oxazocin-2-yl)methyl)-4-methoxy-N,3-dimethylbenzenesulfonamide]",0.314 µM,–,> 0.1 µM,–
–,> 25 µM,C[C@@H]1CN([C@@H](C)CO)C(=O)c2cccc(NC(=O)Nc3cccc4ccccc34)c2O[C@H]1CN(C)S(=O)(=O)c1ccc2c(c1)OCO2 [Compound 23A],–,–,–,> 25 µM
–,> 25 µM,C[C@@H]1CN([C@@H](C)CO)C(=O)c2cccc(NC(=O)Nc3cccc4ccccc34)c2O[C@H]1CN(C)S(=O)(=O)c1ccc2c(c1)OCC2 [Compound 24A],–,–,–,> 25 µM
–,> 25 µM,C[C@@H]1CN([C@@H](C)CO)C(=O)c2cccc(NC(=O)Nc3cccc4ccccc34)c2O[C@H]1CN(C)S(=O)(=O)c1ccc2c(c1)OCCCO2 [Compound 25A],–,–,–,> 25 µM
–,> 25 µM,C[C@@H]1CN([C@@H](C)CO)C(=O)c2cccc(NC(=O)Nc3cccc4ccccc34)c2O[C@H]1CN(C)S(=O)(=O)c1ccc2c(n1)N(C)CCO2 [Compound 26A],–,–,–,> 25 µM
> 25 µM,–,"C[C@@H]1CN([C@@H](C)CO)C(=O)c2cccc(NC(=O)Nc3ccc(F)cc3)c2O[C@H]1CN(C)S(=O)(=O)c1ccc(Cl)cc1 [Compound 30A, 4-Chloro-N-(((2R,3R)-10-(3-(4-fluorophenyl)ureido)-5-((S)-1-hydroxypropan-2-yl)-3-methyl-6-oxo-3,4,5,6-tetrahydro-2H-benzo[b][1,5]oxazocin-2-yl)methyl)-N-methylbenzenesulfonamide]",–,–,> 25 µM,–
–,> 20 µM,C[C@@H]1CN([C@@H](C)CO)C(=O)c2cccc(NC(=O)Nc3ccccc3)c2O[C@H]1CN(C)S(=O)(=O)c1ccc(Cl)cc1 [Compound 31A],–,–,–,> 20 µM
> 25 µM,–,"COc1ccc(S(=O)(=O)N(C)C[C@@H]2Oc3c(NC(=O)Nc4cccc(Cl)c4Cl)cccc3C(=O)N([C@@H](C)CO)C[C@H]2C)cc1 [Compound 32A, N-(((2R,3R)-10-(3-(2,3-Dichlorophenyl)ureido)-5-((S)-1-hydroxypropan-2-yl)-3-methyl-6-oxo-3,4,5,6-tetrahydro-2H-benzo[b][1,5]oxazocin-2-yl)methyl)-4-methoxy-N-methylbenzenesulfonamide]",–,–,> 20 µM,–
–,> 25 µM,COc1ccc(S(=O)(=O)N(C)C[C@@H]2Oc3c(NC(=O)Nc4ccccc4)cccc3C(=O)N([C@@H](C)CO)C[C@H]2C)cc1 [Compound 33A],–,–,–,> 25 µM
–,> 25 µM,COc1ccc(S(=O)(=O)N(C)C[C@@H]2Oc3c(NC(=O)c4cc(C)nn4C)cccc3C(=O)N([C@@H](C)CO)C[C@H]2C)cc1 [Compound 34A],–,–,–,> 25 µM
–,–,Cc1ccc(S(=O)(=O)N(C)C[C@@H]2Oc3c(NC(=O)Nc4ccc(F)cc4)cccc3C(=O)N([C@H](C)CO)C[C@H]2C)cc1 [Compound 37B],–,–,–,> 25 µM
